Experiments:
S. aureus DSM 20231 = assay: fitness (endpoint OD595 vs no drug) (fraction); higher = more growth
In short: (§1)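 Fitness was measured as bacterial growth in 384-well plates inoculated at OD595 0.01 (30 µl, or 55 µl for S. pneumoniae). Media were TSB, LB Lennox or CY, at 37 °C. OD595 was read every 30 min for 14 h and background-subtracted against the first reading. Fitness is OD595 at the transition into stationary phase divided by the robust mean of no-drug control wells, capped at 1.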

S. aureus Newman = assay: as above; conditions: one replicate
In short: as §1
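Further: OD595 on entry to stationary phase over no-drug wells; at most 1.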

CO/N=C(\C(=O)N[C@@H]1C(=O)N2C(C(=O)O)=C(COC(C)=O)CS[C@H]12)c1csc(N)n1 [Cefotaxime] + CC1=C\[C@@H](O)CC(=O)Cc2nc(co2)C(=O)N2CCC=C2C(=O)O[C@H](C(C)C)[C@H](C)/C=C/C(=O)NC\C=C\1 [Virginiamycin M1]
S. aureus DSM 20231, one replicate
Conditions | fitness
first compound 0.039 µg/mL, partner 0.0625 µg/mL | 0.775
first compound 0.039 µg/mL, partner 0.125 µg/mL | 0.779
first compound 0.039 µg/mL, partner 0.25 µg/mL | 0.762
first compound 0.078 µg/mL, partner 0.5 µg/mL | 0.778
first compound 0.078 µg/mL, partner 1 µg/mL | 0.799
first compound 0.156 µg/mL, partner 0.5 µg/mL | 0.742
first compound 0.156 µg/mL, partner 1 µg/mL | 0.699
first compound 0.312 µg/mL, partner 0.5 µg/mL | 0.61
first compound 0.312 µg/mL, partner 1 µg/mL | 0.706

fitness
Conditions | partner 0.0625 µg/mL | partner 0.125 µg/mL | partner 0.25 µg/mL | partner 0.5 µg/mL | partner 1 µg/mL | partner 2 µg/mL
S. aureus DSM 20231, first compound 0.078 µg/mL | 0.678 | 0.784 | 0.776 | – | – | –
S. aureus DSM 20231, first compound 0.156 µg/mL | 0.711 | 0.83 | 0.741 | – | – | –
S. aureus DSM 20231, first compound 0.312 µg/mL | 0.683 | 0.694 | 0.676 | – | – | –
S. aureus Newman, first compound 0.039 µg/mL | – | – | – | 0.71 | 0.72 | 0.732
S. aureus Newman, first compound 0.078 µg/mL | 0.699 | 0.716 | 0.734 | 0.672 | 0.687 | 0.57
S. aureus Newman, first compound 0.156 µg/mL | 0.494 | 0.468 | 0.509 | 0.648 | 0.613 | 0.444
S. aureus Newman, first compound 0.312 µg/mL | 0.305 | 0.326 | 0.307 | 0.57 | 0.54 | 0.344
S. aureus Newman, first compound 0.625 µg/mL | 0.0023 | 0.0438 | 0.039 | – | – | –
